Among the data in patent US10662189B2, “PDE4 inhibitor” (SHIJIAZHUANG SAGACITY NEW DRUG DEVELOPMENT CO., LTD., priority 2016, dated 2020) are IC50 values, retold here.

Sequence of Recombinant human PDE4B (Q07343 305-736 limits assumed): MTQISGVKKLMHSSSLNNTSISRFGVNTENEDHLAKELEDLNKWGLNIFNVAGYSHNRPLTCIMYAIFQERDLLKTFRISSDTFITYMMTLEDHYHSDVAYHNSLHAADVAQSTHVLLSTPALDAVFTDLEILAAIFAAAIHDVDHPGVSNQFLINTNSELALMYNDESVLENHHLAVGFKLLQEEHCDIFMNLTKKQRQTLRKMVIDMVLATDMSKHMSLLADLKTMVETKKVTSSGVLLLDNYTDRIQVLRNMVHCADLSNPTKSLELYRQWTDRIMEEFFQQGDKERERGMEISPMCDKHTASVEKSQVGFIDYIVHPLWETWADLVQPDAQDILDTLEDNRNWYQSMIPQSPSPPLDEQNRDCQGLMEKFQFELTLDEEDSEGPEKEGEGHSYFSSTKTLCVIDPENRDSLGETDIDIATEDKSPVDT

The target of the assay is Recombinant human PDE4B (Homo sapiens (Human), UniProt Q07343). The assay can be described thus: Inhibitory activity against PDE 4B in vitro (fluorescence polarization, Transcreener AMP2/GMP2). In kind it is biochemical. The settings on record: 1 μM cAMP. Here is the method:
Inhibitory activity of the compounds against PDE 4B
The enzyme activity was indicated by measuring the AMP/GMP expression and tracing AMP/GMP antibody binding based on fluorescence polarization in the biological assay.
10 mM Tris-HCl (pH 7.5), 5 mM MgCl2, 0.01% Brij 35, 1 mM DTT and 1% DMSO.
Recombinant human PDE4B (Gen accession number: NM_002600; amino acid 305 end) was expressed by baculovirus in Sf9 insect cells using an N-terminal GST tag. MW=78 kDa.
Transcreener® AMP2/GMP2 antibody and AMP2/GMP2 AlexaFluor633 tracer
i) Recombinant human PDE4B and the enzyme substrate (1 μM cAMP) were dissolved in the newly-prepared buffer solution, respectively.
ii) The PDE4B buffer solution defined as above was transferred into the reaction wells.
iii) The compound which was dissolved in 100% DMSO was added to the reaction wells of the PDE4B buffer solution by ultrasonic oscillator (echo 550; nanoliter range) and incubated at room temperature for 10 minutes.
iv) The enzymatic buffer solution was then added to the reaction wells defined as above to initiate the reaction.
v) The reaction was incubated at room temperature for 1 hour.
vi) The reaction was terminated by adding detecting mixture (Transcreener® AMP2/GMP2 antibody and AMP2/GMP2 AlexaFluor633 tracer) and incubated for 90 minutes with slowly mixing. The measurement range of fluorescence polarization is Ex/Em=620/688.
The fluorescence polarization signal was converted into nM according to the AMP/GMP standard curve and the percent enzyme activity relative to DMSO calculated by Excel. GraphPad Prism was used to plot the curves (Drawing Medicine Icon).
With `COc1ccc(C(CS(C)(=O)=O)n2c(=O)[nH]c3c(-c4ccccc4F)ccnc32)cc1OC` (single isomer, unassigned) [WX072], the IC50 was 24.6 nM.

Consider `CCOc1cc([C@@H](CS(C)(=O)=O)n2c(=O)[nH]c3cc(Cl)cnc32)ccc1OC` [WX001], for which the half-inhibitory concentration (IC50) came to 9.48 nM.

With `CCOc1cc([C@@H](CS(C)(=O)=O)n2c(=O)[nH]c3cc(C(F)(F)F)cnc32)ccc1OC` [WX002], the IC50 was 5.66 nM.

For `CCOc1cc([C@@H](CS(C)(=O)=O)n2c(=O)[nH]c3cc(F)cnc32)ccc1OC` [WX003], the IC50 stood at 10.6 nM.

Regarding `CCOc1cc([C@@H](CS(C)(=O)=O)n2c(=O)[nH]c3cc(Br)cnc32)ccc1OC` [WX004], the IC50 worked out at 7.09 nM.

Consider `CCOc1cc([C@@H](CS(C)(=O)=O)n2c(=O)[nH]c3cc(C4CC4)cnc32)ccc1OC` [WX005], for which the IC50 amounted to 5.03 nM.

Turning to `CCOc1cc([C@@H](CS(C)(=O)=O)n2c(=O)[nH]c3cc(Cc4ccccc4F)cnc32)ccc1OC` [WX006], the half-inhibitory concentration (IC50) stood at 1.8 nM.

`CCOc1cc([C@@H](CS(C)(=O)=O)n2c(=O)[nH]c3cc(C=C(C)C)cnc32)ccc1OC` [WX007]: the IC50 turned out to be 2.81 nM.

Regarding `CCOc1cc([C@@H](CS(C)(=O)=O)n2c(=O)[nH]c3cc(CC(C)C)cnc32)ccc1OC` [WX008], the IC50 was found to be 4.89 nM.

`CCOc1cc([C@@H](CS(C)(=O)=O)n2c(=O)[nH]c3cc(-c4ccccc4F)cnc32)ccc1OC` [WX009]: the IC50 was determined as 0.86 nM.

On to `CCOc1cc([C@@H](CS(C)(=O)=O)n2c(=O)[nH]c3cc(-c4ccccc4)cnc32)ccc1OC` [WX010], for which the IC50 was found to be 2.6 nM.

Take `CCOc1cc([C@@H](CS(C)(=O)=O)n2c(=O)[nH]c3cc(-c4cccc(F)c4)cnc32)ccc1OC` [WX011]: the IC50 was 3.4 nM.

As for `CCOc1cc([C@@H](CS(C)(=O)=O)n2c(=O)[nH]c3cc(-c4ccc(F)cc4)cnc32)ccc1OC` [WX012], the IC50 was 3.9 nM.

As for `CCOc1cc([C@@H](CS(C)(=O)=O)n2c(=O)[nH]c3cc(-c4cccc(F)c4F)cnc32)ccc1OC` [WX013], the concentration for half-maximal inhibition (IC50) stood at 0.994 nM.

As for `CCOc1cc([C@@H](CS(C)(=O)=O)n2c(=O)[nH]c3cc(-c4ccccc4C)cnc32)ccc1OC` [WX014], the IC50 was < 0.5 nM.

Turning to `CCOc1cc([C@@H](CS(C)(=O)=O)n2c(=O)[nH]c3cc(-c4ccccc4C(C)C)cnc32)ccc1OC` [WX015], the IC50 amounted to 1.04 nM.

Turning to `CCOc1cc([C@@H](CS(C)(=O)=O)n2c(=O)[nH]c3cc(-c4ccccc4Cl)cnc32)ccc1OC` [WX016], the IC50 was < 0.5 nM.

On to `CCOc1cc([C@@H](CS(C)(=O)=O)n2c(=O)[nH]c3cc(-c4ccccc4OC)cnc32)ccc1OC` [WX017], for which the half-maximal inhibitory concentration (IC50) was 0.641 nM.

On to `CCOc1cc([C@@H](CS(C)(=O)=O)n2c(=O)[nH]c3cc(-c4ccccc4C(F)(F)F)cnc32)ccc1OC` [WX018], for which the IC50 worked out at 0.391 nM.

With `CCOc1cc([C@@H](CS(C)(=O)=O)n2c(=O)[nH]c3cc(-c4cn[nH]c4)cnc32)ccc1OC` [WX019], the IC50 is 3.38 nM.

Take `CCOc1cc([C@@H](CS(C)(=O)=O)n2c(=O)[nH]c3cc(C)cnc32)ccc1OC` [WX020]: the IC50 amounted to 65.8 nM.

Consider `CCOc1cc([C@@H](CS(C)(=O)=O)n2c(=O)[nH]c3cc(-n4ccccc4=O)cnc32)ccc1OC` [WX021], for which the IC50 was 26.1 nM.

For `CCOc1cc([C@@H](CS(C)(=O)=O)n2c(=O)[nH]c3cc(C#N)cnc32)ccc1OC` [WX022], the IC50 turned out to be 26.5 nM.

On to `CCOc1cc([C@@H](CS(C)(=O)=O)n2c(=O)[nH]c3cc(CO)cnc32)ccc1OC` [WX023], for which the half-maximal inhibitory concentration (IC50) is 68.1 nM.

As to `CCOc1cc([C@@H](CS(C)(=O)=O)n2c(=O)n(Cc3ccccc3F)c3cc(Cc4ccccc4F)cnc32)ccc1OC` [WX024], the IC50 was determined as 2.7 nM.

Turning to `CCOc1cc([C@@H](CS(C)(=O)=O)n2c(=O)[nH]c3cc(-c4cccnc4)cnc32)ccc1OC` [WX025], the IC50 came out at 9.53 nM.

Regarding `CCOc1cc([C@@H](CS(C)(=O)=O)n2c(=O)[nH]c3cc(-c4ncccn4)cnc32)ccc1OC` [WX026], the IC50 was determined as 4.51 nM.

One may read the IC50 as the concentration at which inhibition is half-maximal.
